Results: patent US12435059B2, “AMP-activated protein kinase inhibitors and methods of making and using the same” (The Regents of the University of Colorado, priority 2019, dated 2025)
Read-outs that look alike come from different tables or passages of the source.

Key:
Test in all cases: biochemical
Assay type in all cases: binding
468 kinases [1] = target: 468 kinases (Homo sapiens, UniProt Q9Y3S1); details: WNK2; read-out: % Inhibition @ 100 nM
468 kinases [2] = target: 468 kinases (Homo sapiens, UniProt Q2M2I8); details: AAK1; read-out: % Inhibition @ 100 nM
468 kinases [3] = target: 468 kinases (Homo sapiens, UniProt O00238); details: BMPR1B; read-out: % Inhibition @ 100 nM
468 kinases [4] = target: 468 kinases (Homo sapiens, UniProt O00444); details: PLK4; read-out: % Inhibition @ 100 nM
468 kinases [5] = target: 468 kinases (Homo sapiens, UniProt Q9Y5S2); details: MRCKB; read-out: % Inhibition @ 100 nM
468 kinases [6] = target: 468 kinases (Homo sapiens, UniProt Q12851); details: MAP4K2; read-out: % Inhibition @ 100 nM
468 kinases [7] = target: 468 kinases (Homo sapiens, UniProt Q9UBE8); details: NLK; read-out: % Inhibition @ 100 nM
468 kinases [8] = target: 468 kinases (Homo sapiens, UniProt Q99683); details: ASK1; read-out: % Inhibition @ 100 nM
468 kinases [9] = target: 468 kinases (Homo sapiens, UniProt P16234); details: PDGFRA; read-out: % Inhibition @ 100 nM
468 kinases [10] = target: 468 kinases (Homo sapiens, UniProt Q9H4B4); details: PLK3; read-out: % Inhibition @ 100 nM
468 kinases [11] = target: 468 kinases (Homo sapiens, UniProt P51956); details: NEK3; read-out: % Inhibition @ 100 nM
468 kinases [12] = target: 468 kinases (Homo sapiens, UniProt P51813); details: BMX; read-out: % Inhibition @ 100 nM
468 kinases [13] = target: 468 kinases (Homo sapiens, UniProt Q9UPE1); details: SRPK3; read-out: % Inhibition @ 100 nM
468 kinases [14] = target: 468 kinases (Homo sapiens, UniProt Q32MK0); details: MLCK; read-out: % Inhibition @ 100 nM
468 kinases [15] = target: 468 kinases (Homo sapiens, UniProt P53778); details: p38-gamma; read-out: % Inhibition @ 100 nM
468 kinases [16] = target: 468 kinases (Homo sapiens, UniProt Q12852); details: DLK; read-out: % Inhibition @ 100 nM
468 kinases [17] = target: 468 kinases (Homo sapiens, UniProt P10721, D816V); details: KIT(D816V); read-out: % Inhibition @ 100 nM
468 kinases [18] = target: 468 kinases (Homo sapiens, UniProt Q9Y243); details: AKT3; read-out: % Inhibition @ 100 nM
468 kinases [19] = target: 468 kinases (Homo sapiens, UniProt P32298); details: GRK4; read-out: % Inhibition @ 100 nM
468 kinases [20] = target: 468 kinases (Homo sapiens, UniProt P33981); details: TTK; read-out: % Inhibition @ 100 nM
468 kinases [21] = target: 468 kinases (Homo sapiens, UniProt Q8TD19); details: NEK9; read-out: % Inhibition @ 100 nM
468 kinases [22] = target: 468 kinases (Homo sapiens, UniProt P42336); details: PIK3CA; read-out: % Inhibition @ 100 nM
468 kinases [23] = target: 468 kinases (Homo sapiens, UniProt P42336, E542K); details: PIK3CA(E542K); read-out: % Inhibition @ 100 nM
468 kinases [24] = target: 468 kinases (Homo sapiens, UniProt Q9Y6E0); details: MST3; read-out: % Inhibition @ 100 nM
468 kinases [25] = target: 468 kinases (Homo sapiens, UniProt P27361); details: ERK1; read-out: % Inhibition @ 100 nM
468 kinases [26] = target: 468 kinases (Homo sapiens, UniProt P42336, H1047L); details: PIK3CA(H1047L); read-out: % Inhibition @ 100 nM
468 kinases [27] = target: 468 kinases (Homo sapiens, UniProt P0C264); details: SgK110; read-out: % Inhibition @ 100 nM
468 kinases [28] = target: 468 kinases (Homo sapiens, UniProt P04049); details: RAF1; read-out: % Inhibition @ 100 nM
468 kinases [29] = target: 468 kinases (Homo sapiens, UniProt P00519, H396P); details: read-out: % Inhibition @ 100 nM
468 kinases [30] = target: 468 kinases (Homo sapiens, UniProt Q99558); details: NIK; read-out: % Inhibition @ 100 nM
468 kinases [31] = target: 468 kinases (Homo sapiens, UniProt P10721, L576P); details: KIT(L576P); read-out: % Inhibition @ 100 nM
468 kinases [32] = target: 468 kinases (Homo sapiens, UniProt P15735); details: PHKG2; read-out: % Inhibition @ 100 nM
468 kinases [33] = target: 468 kinases (Homo sapiens, UniProt P35626); details: GRK3; read-out: % Inhibition @ 100 nM

| Compound | inhibition at 0.1 µM (468 kinases [1]) | inhibition at 0.1 µM (468 kinases [2]) | inhibition at 0.1 µM (468 kinases [3]) | inhibition at 0.1 µM (468 kinases [4]) | inhibition at 0.1 µM (468 kinases [5]) | inhibition at 0.1 µM (468 kinases [6]) | inhibition at 0.1 µM (468 kinases [7]) | inhibition at 0.1 µM (468 kinases [8]) | inhibition at 0.1 µM (468 kinases [9]) | inhibition at 0.1 µM (468 kinases [10]) | inhibition at 0.1 µM (468 kinases [11]) | inhibition at 0.1 µM (468 kinases [12]) | inhibition at 0.1 µM (468 kinases [13]) | inhibition at 0.1 µM (468 kinases [14]) | inhibition at 0.1 µM (468 kinases [15]) | inhibition at 0.1 µM (468 kinases [16]) | inhibition at 0.1 µM (468 kinases [17]) | inhibition at 0.1 µM (468 kinases [18]) | inhibition at 0.1 µM (468 kinases [19]) | inhibition at 0.1 µM (468 kinases [20]) | other results |
| --- | --- | --- | --- | --- | --- | --- | --- | --- | --- | --- | --- | --- | --- | --- | --- | --- | --- | --- | --- | --- | --- |
| CCN(CC)CCNC(=O)c1c(C)[nH]c(/C=C2\C(=O)Nc3ccc(CCC(N)=O)cc32)c1C [Compound No. 16, (Z)-5-((5-(3-Amino-3-oxopropyl)-2-oxoindolin-3-ylidene)methyl)-N-(2-(diethylamino)ethyl)-2,4-dimethyl-1H-pyrrole-3-carboxamide] | 13% | 89% | 28% | 57% | 15% | 89% | 8% | 20% | 55% | 16% | 45% | 8% | 77% | 0% | 15% | 100% | 24% | 17% | 72% | 8% | inhibition at 0.1 µM (468 kinases [21]): 0%; inhibition at 0.1 µM (468 kinases [22]): 14%; inhibition at 0.1 µM (468 kinases [23]): 26%; inhibition at 0.1 µM (468 kinases [24]): 19%; inhibition at 0.1 µM (468 kinases [25]): 13%; inhibition at 0.1 µM (468 kinases [26]): 15%; inhibition at 0.1 µM (468 kinases [27]): 0%; inhibition at 0.1 µM (468 kinases [28]): 0%; inhibition at 0.1 µM (468 kinases [29]; ABL1 (H396P)-nonphosphorylated): 66%; inhibition at 0.1 µM (468 kinases [30]): 16%; inhibition at 0.1 µM (468 kinases [31]): 12%; inhibition at 0.1 µM (468 kinases [32]): 97.2%; inhibition at 0.1 µM (468 kinases [33]): 61% |
| CCN(CC)CCNC(=O)c1c(C)[nH]c(/C=C2\C(=O)Nc3ccc(CCO)cc32)c1C [Compound No. 10, (Z)—N-(2-(Diethylamino)ethyl)-5-((5-(2-hydroxyethyl)-2-oxoindolin-3-ylidene)methyl)-2,4-dimethyl-1H-pyrrole-3-carboxamide] | 0% | 88% | 0% | 0% | 0% | 88% | 5% | 0% | 84% | 4% | 50% | 11% | 88% | 0% | 14% | 86% | 12% | 47% | 79% | 0% | inhibition at 0.1 µM (468 kinases [21]): 0%; inhibition at 0.1 µM (468 kinases [22]): 0%; inhibition at 0.1 µM (468 kinases [23]): 10%; inhibition at 0.1 µM (468 kinases [24]): 20%; inhibition at 0.1 µM (468 kinases [25]): 0%; inhibition at 0.1 µM (468 kinases [26]): 16%; inhibition at 0.1 µM (468 kinases [27]): 58%; inhibition at 0.1 µM (468 kinases [28]): 9%; inhibition at 0.1 µM (468 kinases [29]; ABL1 (H396P)-nonphosphorylated): 57%; inhibition at 0.1 µM (468 kinases [29]; ABL1 (H396P)-phosphorylated): 6%; inhibition at 0.1 µM (468 kinases [30]): 17%; inhibition at 0.1 µM (468 kinases [31]): 88%; inhibition at 0.1 µM (468 kinases [32]): 94.4%; inhibition at 0.1 µM (468 kinases [33]): 0% |
